According to patent publication US9513294B2, “Megastokes amino-triazolyl-BODIPY compounds and applications to live neuron staining and human serum albumin FA1 drug site probing” (National University of Singapore, priority 2012, dated 2016):

Experiment: Absorbance and fluorescence emission spectra (SpectraMax M2)
Assay type: physicochemical
Conditions: MKAC compound library; absorbance maximum
In short: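 Absorbance and emission maxima measured on a SpectraMax M2 spectrophotometer, which also gave quantum yield data; analysis in GraphPrism.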

| Structure (SMILES) | λmax Abs. (nm) |
| --- | --- |
| CC(=O)Nc1ccc(C2=C3C=CC(N4CCc5ccccc5C4)=[N+]3[B-](F)(F)n3c2ccc3-n2cc(CN(C)Cc3ccccc3)nn2)cc1 [MKAC66-18] | 468 |
| CC(=O)Nc1ccc(C2=C3C=CC(N4CCc5ccccc5C4)=[N+]3[B-](F)(F)n3c2ccc3-n2cc(CCc3ccccc3)nn2)cc1 [MKAC66-19] | 470 |
| CC(=O)Nc1ccc(C2=C3C=CC(N4CCc5ccccc5C4)=[N+]3[B-](F)(F)n3c2ccc3-n2cc(CC(C)C)nn2)cc1 [MKAC66-43] | 469 |
| CCCc1cn(-c2ccc3n2[B-](F)(F)[N+]2=C(N4CCc5ccccc5C4)C=CC2=C3c2ccc(NC(C)=O)cc2)nn1 [MKAC66-48] | 469 |
| CCCCCC(O)c1cn(-c2ccc3n2[B-](F)(F)[N+]2=C(N4CCc5ccccc5C4)C=CC2=C3c2ccc(NC(C)=O)cc2)nn1 (centres unmarked) [MKAC66-69] | 469 |
| CC(=O)Nc1ccc(C2=C3C=CC(N4CCc5ccccc5C4)=[N+]3[B-](F)(F)n3c2ccc3-n2cc(CO)nn2)cc1 [MKAC66-70] | 468 |
| CC(=O)Nc1ccc(C2=C3C=CC(NCc4ccccc4C)=[N+]3[B-](F)(F)n3c2ccc3-n2cc(C3CC3)nn2)cc1 [MKAC101-4] | 465 |
| CC(=O)Nc1ccc(C2=C3C=CC(NCc4ccccc4C)=[N+]3[B-](F)(F)n3c2ccc3-n2cc(C3CCCC3)nn2)cc1 [MKAC101-5] | 466 |
| CC(=O)Nc1ccc(C2=C3C=CC(NCc4ccccc4C)=[N+]3[B-](F)(F)n3c2ccc3-n2cc(CC3CCCCC3)nn2)cc1 [MKAC101-8] | 465 |
| CC(=O)Nc1ccc(C2=C3C=CC(NCc4ccccc4C)=[N+]3[B-](F)(F)n3c2ccc3-n2cc(CN(C)Cc3ccccc3)nn2)cc1 [MKAC101-18] | 465 |
| CC(=O)Nc1ccc(C2=C3C=CC(NCc4ccccc4C)=[N+]3[B-](F)(F)n3c2ccc3-n2cc(CCc3ccccc3)nn2)cc1 [MKAC101-19] | 464 |
| CC(=O)Nc1ccc(C2=C3C=CC(NCc4ccccc4C)=[N+]3[B-](F)(F)n3c2ccc3-n2cc(CC(C)C)nn2)cc1 [MKAC101-43] | 465 |
| CCCc1cn(-c2ccc3n2[B-](F)(F)[N+]2=C(NCc4ccccc4C)C=CC2=C3c2ccc(NC(C)=O)cc2)nn1 [MKAC101-48] | 465 |
| CCCCCC(O)c1cn(-c2ccc3n2[B-](F)(F)[N+]2=C(NCc4ccccc4C)C=CC2=C3c2ccc(NC(C)=O)cc2)nn1 (centres unmarked) [MKAC101-69] | 461 |
| CC(=O)Nc1ccc(C2=C3C=CC(NCc4ccccc4C)=[N+]3[B-](F)(F)n3c2ccc3-n2cc(CO)nn2)cc1 [MKAC101-70] | 465 |
| CCCC(C)c1cn(-c2ccc3n2[B-](F)(F)[N+]2=C(NCc4ccccc4OCC)C=CC2=C3c2ccc(NC(C)=O)cc2)nn1 (centres unmarked) [MKAC103-3] | 465 |
| CCOc1ccccc1CNC1=[N+]2C(=C(c3ccc(NC(C)=O)cc3)c3ccc(-n4cc(C5CC5)nn4)n3[B-]2(F)F)C=C1 [MKAC103-4] | 464 |
| CCOc1ccccc1CNC1=[N+]2C(=C(c3ccc(NC(C)=O)cc3)c3ccc(-n4cc(C5CCCC5)nn4)n3[B-]2(F)F)C=C1 [MKAC103-5] | 465 |
| CCOc1ccccc1CNC1=[N+]2C(=C(c3ccc(NC(C)=O)cc3)c3ccc(-n4cc(CC5CCCCC5)nn4)n3[B-]2(F)F)C=C1 [MKAC103-8] | 465 |
| CCOc1ccccc1CNC1=[N+]2C(=C(c3ccc(NC(C)=O)cc3)c3ccc(-n4cc(CN(C)Cc5ccccc5)nn4)n3[B-]2(F)F)C=C1 [MKAC103-18] | 465 |
| CCOc1ccccc1CNC1=[N+]2C(=C(c3ccc(NC(C)=O)cc3)c3ccc(-n4cc(CCc5ccccc5)nn4)n3[B-]2(F)F)C=C1 [MKAC103-19] | 464 |

Same assay, conditions: MKAC compound library; fluorescence emission maximum

| Structure (SMILES) | λmax Em. (nm) |
| --- | --- |
| CC(=O)Nc1ccc(C2=C3C=CC(N4CCc5ccccc5C4)=[N+]3[B-](F)(F)n3c2ccc3-n2cc(CN(C)Cc3ccccc3)nn2)cc1 [MKAC66-18] | 585 |
| CC(=O)Nc1ccc(C2=C3C=CC(N4CCc5ccccc5C4)=[N+]3[B-](F)(F)n3c2ccc3-n2cc(CCc3ccccc3)nn2)cc1 [MKAC66-19] | 580 |
| CC(=O)Nc1ccc(C2=C3C=CC(N4CCc5ccccc5C4)=[N+]3[B-](F)(F)n3c2ccc3-n2cc(CC(C)C)nn2)cc1 [MKAC66-43] | 581 |
| CCCc1cn(-c2ccc3n2[B-](F)(F)[N+]2=C(N4CCc5ccccc5C4)C=CC2=C3c2ccc(NC(C)=O)cc2)nn1 [MKAC66-48] | 582 |
| CCCCCC(O)c1cn(-c2ccc3n2[B-](F)(F)[N+]2=C(N4CCc5ccccc5C4)C=CC2=C3c2ccc(NC(C)=O)cc2)nn1 (centres unmarked) [MKAC66-69] | 579 |
| CC(=O)Nc1ccc(C2=C3C=CC(N4CCc5ccccc5C4)=[N+]3[B-](F)(F)n3c2ccc3-n2cc(CO)nn2)cc1 [MKAC66-70] | 582 |
| CC(=O)Nc1ccc(C2=C3C=CC(NCc4ccccc4C)=[N+]3[B-](F)(F)n3c2ccc3-n2cc(C3CC3)nn2)cc1 [MKAC101-4] | 563 |
| CC(=O)Nc1ccc(C2=C3C=CC(NCc4ccccc4C)=[N+]3[B-](F)(F)n3c2ccc3-n2cc(C3CCCC3)nn2)cc1 [MKAC101-5] | 563 |
| CC(=O)Nc1ccc(C2=C3C=CC(NCc4ccccc4C)=[N+]3[B-](F)(F)n3c2ccc3-n2cc(CC3CCCCC3)nn2)cc1 [MKAC101-8] | 563 |
| CC(=O)Nc1ccc(C2=C3C=CC(NCc4ccccc4C)=[N+]3[B-](F)(F)n3c2ccc3-n2cc(CCc3ccccc3)nn2)cc1 [MKAC101-19] | 560 |
| CC(=O)Nc1ccc(C2=C3C=CC(NCc4ccccc4C)=[N+]3[B-](F)(F)n3c2ccc3-n2cc(CC(C)C)nn2)cc1 [MKAC101-43] | 562 |
| CCCc1cn(-c2ccc3n2[B-](F)(F)[N+]2=C(NCc4ccccc4C)C=CC2=C3c2ccc(NC(C)=O)cc2)nn1 [MKAC101-48] | 562 |
| CCCCCC(O)c1cn(-c2ccc3n2[B-](F)(F)[N+]2=C(NCc4ccccc4C)C=CC2=C3c2ccc(NC(C)=O)cc2)nn1 (centres unmarked) [MKAC101-69] | 562 |
| CC(=O)Nc1ccc(C2=C3C=CC(NCc4ccccc4C)=[N+]3[B-](F)(F)n3c2ccc3-n2cc(CO)nn2)cc1 [MKAC101-70] | 561 |
| CCCC(C)c1cn(-c2ccc3n2[B-](F)(F)[N+]2=C(NCc4ccccc4OCC)C=CC2=C3c2ccc(NC(C)=O)cc2)nn1 (centres unmarked) [MKAC103-3] | 561 |
| CCOc1ccccc1CNC1=[N+]2C(=C(c3ccc(NC(C)=O)cc3)c3ccc(-n4cc(C5CC5)nn4)n3[B-]2(F)F)C=C1 [MKAC103-4] | 565 |
| CCOc1ccccc1CNC1=[N+]2C(=C(c3ccc(NC(C)=O)cc3)c3ccc(-n4cc(C5CCCC5)nn4)n3[B-]2(F)F)C=C1 [MKAC103-5] | 562 |
| CCOc1ccccc1CNC1=[N+]2C(=C(c3ccc(NC(C)=O)cc3)c3ccc(-n4cc(CC5CCCCC5)nn4)n3[B-]2(F)F)C=C1 [MKAC103-8] | 562 |
| CCOc1ccccc1CNC1=[N+]2C(=C(c3ccc(NC(C)=O)cc3)c3ccc(-n4cc(CN(C)Cc5ccccc5)nn4)n3[B-]2(F)F)C=C1 [MKAC103-18] | 560 |
| CCOc1ccccc1CNC1=[N+]2C(=C(c3ccc(NC(C)=O)cc3)c3ccc(-n4cc(CCc5ccccc5)nn4)n3[B-]2(F)F)C=C1 [MKAC103-19] | 562 |

Experiment: Quantum yield measurements versus Acridine Yellow in EtOH
Assay type: physicochemical
Conditions: MKAC compound library; quantum yield
In short: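 Fluorescence quantum yield is relative to Acridine Yellow in EtOH (Φ 0.47), with excitation at 460 nm. Integrated emission at 510–700 nm was corrected for absorbance at the excitation wavelength and for solvent refractive index.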

| Structure (SMILES) | φ (%) |
| --- | --- |
| CC(=O)Nc1ccc(C2=C3C=CC(N4CCc5ccccc5C4)=[N+]3[B-](F)(F)n3c2ccc3-n2cc(CN(C)Cc3ccccc3)nn2)cc1 [MKAC66-18] | 1.56 |
| CC(=O)Nc1ccc(C2=C3C=CC(N4CCc5ccccc5C4)=[N+]3[B-](F)(F)n3c2ccc3-n2cc(CCc3ccccc3)nn2)cc1 [MKAC66-19] | 1.76 |
| CC(=O)Nc1ccc(C2=C3C=CC(N4CCc5ccccc5C4)=[N+]3[B-](F)(F)n3c2ccc3-n2cc(CC(C)C)nn2)cc1 [MKAC66-43] | 1.92 |
| CCCc1cn(-c2ccc3n2[B-](F)(F)[N+]2=C(N4CCc5ccccc5C4)C=CC2=C3c2ccc(NC(C)=O)cc2)nn1 [MKAC66-48] | 2.14 |
| CCCCCC(O)c1cn(-c2ccc3n2[B-](F)(F)[N+]2=C(N4CCc5ccccc5C4)C=CC2=C3c2ccc(NC(C)=O)cc2)nn1 (centres unmarked) [MKAC66-69] | 1.88 |
| CC(=O)Nc1ccc(C2=C3C=CC(N4CCc5ccccc5C4)=[N+]3[B-](F)(F)n3c2ccc3-n2cc(CO)nn2)cc1 [MKAC66-70] | 1.44 |
| CC(=O)Nc1ccc(C2=C3C=CC(NCc4ccccc4C)=[N+]3[B-](F)(F)n3c2ccc3-n2cc(C3CC3)nn2)cc1 [MKAC101-4] | 23.84 |
| CC(=O)Nc1ccc(C2=C3C=CC(NCc4ccccc4C)=[N+]3[B-](F)(F)n3c2ccc3-n2cc(C3CCCC3)nn2)cc1 [MKAC101-5] | 23.69 |
| CC(=O)Nc1ccc(C2=C3C=CC(NCc4ccccc4C)=[N+]3[B-](F)(F)n3c2ccc3-n2cc(CC3CCCCC3)nn2)cc1 [MKAC101-8] | 21.14 |
| CC(=O)Nc1ccc(C2=C3C=CC(NCc4ccccc4C)=[N+]3[B-](F)(F)n3c2ccc3-n2cc(CN(C)Cc3ccccc3)nn2)cc1 [MKAC101-18] | 13.14 |
| CC(=O)Nc1ccc(C2=C3C=CC(NCc4ccccc4C)=[N+]3[B-](F)(F)n3c2ccc3-n2cc(CCc3ccccc3)nn2)cc1 [MKAC101-19] | 23.26 |
| CC(=O)Nc1ccc(C2=C3C=CC(NCc4ccccc4C)=[N+]3[B-](F)(F)n3c2ccc3-n2cc(CC(C)C)nn2)cc1 [MKAC101-43] | 20.12 |
| CCCc1cn(-c2ccc3n2[B-](F)(F)[N+]2=C(NCc4ccccc4C)C=CC2=C3c2ccc(NC(C)=O)cc2)nn1 [MKAC101-48] | 17.25 |
| CCCCCC(O)c1cn(-c2ccc3n2[B-](F)(F)[N+]2=C(NCc4ccccc4C)C=CC2=C3c2ccc(NC(C)=O)cc2)nn1 (centres unmarked) [MKAC101-69] | 24.08 |
| CC(=O)Nc1ccc(C2=C3C=CC(NCc4ccccc4C)=[N+]3[B-](F)(F)n3c2ccc3-n2cc(CO)nn2)cc1 [MKAC101-70] | 18.11 |
| CCCC(C)c1cn(-c2ccc3n2[B-](F)(F)[N+]2=C(NCc4ccccc4OCC)C=CC2=C3c2ccc(NC(C)=O)cc2)nn1 (centres unmarked) [MKAC103-3] | 23.42 |
| CCOc1ccccc1CNC1=[N+]2C(=C(c3ccc(NC(C)=O)cc3)c3ccc(-n4cc(C5CC5)nn4)n3[B-]2(F)F)C=C1 [MKAC103-4] | 24.86 |
| CCOc1ccccc1CNC1=[N+]2C(=C(c3ccc(NC(C)=O)cc3)c3ccc(-n4cc(C5CCCC5)nn4)n3[B-]2(F)F)C=C1 [MKAC103-5] | 18.11 |
| CCOc1ccccc1CNC1=[N+]2C(=C(c3ccc(NC(C)=O)cc3)c3ccc(-n4cc(CC5CCCCC5)nn4)n3[B-]2(F)F)C=C1 [MKAC103-8] | 25.32 |
| CCOc1ccccc1CNC1=[N+]2C(=C(c3ccc(NC(C)=O)cc3)c3ccc(-n4cc(CN(C)Cc5ccccc5)nn4)n3[B-]2(F)F)C=C1 [MKAC103-18] | 18.63 |
| CCOc1ccccc1CNC1=[N+]2C(=C(c3ccc(NC(C)=O)cc3)c3ccc(-n4cc(CCc5ccccc5)nn4)n3[B-]2(F)F)C=C1 [MKAC103-19] | 29.05 |
